This is an account of results in patent publication US20220218679A1, “NOVEL COMPOUNDS AND PHARMACEUTICAL COMPOSITIONS THEREOF FOR THE TREATMENT OF INFLAMMATORY DISORDERS” (Galapagos NV, priority 2019, published 2022).

The subject of series [1] is CL097 triggered TNFα release in human whole blood. The experiment in a line: Ex vivo human TNFα release inhibition (human whole blood assay). Type of series: cell-based. The conditions noted are these: CL097 2 μg/mL, 3 h 30 min at 37° C. The source says:
4.10.1. Ex Vivo Human IFNα and TNFα Release Inhibition (Human Whole Blood Assay)
The aim of the assay is to evaluate the activity of compounds of the invention on the activated TLR/IRAK-4 pathway in an ex vivo human whole blood setting. Toll-like receptors (TLRs) are pattern recognition receptors that recognize a wide variety of microbial molecules, called pathogen-associated molecular patterns (PAMPs). Human TLR7 and TLR8 recognize imidazoquinoline compounds (e.g., CL097—CAS n #1026249-18-2) and single stranded RNAs as their natural ligands. Activation of TLRs leads to the production of several cytokines (e.g., IFNα, TNFα, IL-8, IL-6) by the TLR agonist-treated cells, whereas IRAK4 leads to the production of IFNα. Cytokine release is used as readout in this assay and represents a measure for the level of inhibition of the TLR/IRAK-4 pathway by the tested compound. It should be noted that in the context of the complete organism, other sources for these cytokines exist that are not dependent on the TLR/IRAK-4 pathway, such as e.g., macrophages (upon activation of the Fcγ receptor (Yan et al., 2012)) or T cells (upon activation of the T cell receptor (Brehm et al., 2005)).
4.10.1.1. Experimental Design
Blood was collected from healthy volunteers into lithium heparin tubes by venipuncture, then gently inverted several times to prevent clotting and incubated for at least 15 min at 37° C. on a rocking mixer shaker. Then, 100 μL of blood was dispensed into polypropylene 96-well microplate and pre-incubated in duplicate with 0.3% DMSO or test compound at different concentrations (from 30 to 0.01 μM, 3-fold dilutions to get 0.3% DMSO at the final) for 15 min at 37° C. After this pre-incubation, blood was triggered with CL097 (2 μg/mL from 1 mg/mL solution in water; InvivoGen, tlrl-c97) for 3 h 30 min at 37° C. Microtubes were centrifuged at 5000×g for 10 min at 4° C. and approximately 40 μL of plasma were collected into a polystyrene 96-well plate. Plasma could be analyzed freshly, within 30 min after triggering, or frozen at −80° C. Finally, the quantification of TNFα and IFNα were performed in the plasma using AlphaLISA Kit for TNFα and IFNα according to the manufacturer's instructions and read on the Ensight (PerkinElmer).
For each blood sample, the TNFα concentrations of the samples were determined from the fit. Data were then expressed a percentage of inhibition PIN for each replicate using the formula:
With mean TNFα with CL097=mean TNFα concentration of replicate samples triggered with CL097; TNFαsample1=TNFα concentration of sample 1; mean TNFα with vehicle=mean TNFα concentration of replicate samples treated with vehicle.
Curve fitting for pIC50 determination were generated using mean PIN±sem. Graphs and pIC50 calculations were derived using Prism 5.03 software (GraphPad).

Series [2] relates to Mouse Hepatocyte. The experiment in a line: Metabolic stability in hepatocytes (mouse). Type of series: in vitro ADME. The conditions noted are these: 1 μM test compound, cryopreserved mouse hepatocytes. On the procedure:
4.6. Metabolic Stability in Hepatocytes
The aim of this assay is to determine the metabolic stability of the compound in hepatocytes (cryopreserved) of different species. Low hepatocyte stability may result in the formation of unwanted metabolites, high clearance, and therefore is not desirable.
The decrease in parent was assessed by measuring the percentage remaining by LC-MS/MS analysis.
A 10 mM stock solution of test compound in DMSO was first diluted in DMSO to 3 mM, and then in modified Krebs-Henseleit buffer (Sigma, K3753) to 5 μM. This compound dilution was added to a suspension of pooled cryopreserved hepatocytes (BioreclamationIVT) at 37° C. under gentle shaking.
Final reaction conditions were: 1 μM of test compound, 0.03% DMSO, 0.5 million viable hepatocytes/mL, and 75 μL incubation volume.
Testosterone (1 μM) and 7-hydroxycoumarin (1 μM) were used, respectively as phase I and phase II metabolic reaction controls.
After 0, 10, 20, 45, 90, 120 and 180 min of incubation, the reaction was terminated with 225 μL of MeCN:MeOH (2:1) containing 100 ng/mL of diclofenac as analytical internal standard. Samples were mixed, centrifuged and the supernatant analyzed by LC-MS/MS.
The instrument responses (ratios of test compound and internal standard peak areas) were referenced to the zero time point samples (considered as 100%) in order to determine the percentage of compound remaining.
Plots of percentage compound remaining were used to determine the intrinsic clearance in the hepatocyte incubations using the following equations:
Scaled Clint [L/h/kg]=Clint[μL/min/10^6 cells]*#(10^6) cells/g liver*60*( 1/10^6) Scaled Clint unbound [L/h/kg]=Clint [L/h/kg]/Fu,inc where: fu,inc equals hepatocyte binding, derived from microsomal binding (fu,mic) by following equation: […]

As a reminder, the IC50 is the concentration that gives 50% inhibition. Low values mean higher potency, high ones lower potency. In series [1] (Homo sapiens), `COc1cn2nc(CC(F)C(C)(C)O)cc2cc1NC(=O)c1cccn(C2CC2)c1=O` (single isomer, unassigned; enantiomer a) [Compound 25, 1-cyclopropyl-N-[2-(2-fluoro-3-hydroxy-3-methyl-butyl)-6-methoxy-pyrazolo[1,5-a]pyridin-5-yl]-2-oxo-pyridine-3-carboxamide Enantiomer A] gave a half-maximal inhibitory concentration (IC50) of 500 to 1000 nM. `COc1cn2nc(CC(F)C(C)(C)O)cc2cc1NC(=O)c1cccn(C2CC2)c1=O` (single isomer, unassigned; enantiomer b) [Compound 26, 1-cyclopropyl-N-[2-(2-fluoro-3-hydroxy-3-methyl-butyl)-6-methoxy-pyrazolo[1,5-a]pyridin-5-yl]-2-oxo-pyridine-3-carboxamide Enantiomer B]: the half-inhibitory concentration (IC50) in series [1] lay in the range of 1000 to 5000 nM. As to `COc1cn2nc(CCC(C)(C)O)cc2cc1NC(=O)c1cccn(C2CC2)c1=O` [Compound 1, 1-cyclopropyl-N-[2-(3-hydroxy-3-methylbutyl)-6-methoxypyrazolo[1,5-a]pyridin-5-yl]-2-oxopyridine-3-carboxamide], the IC50 in series [1] (Homo sapiens) was 0.1 to 500 nM. Besides, the “Mouse Hepatocyte stability (Perc. remaining at 90 min)” value in series [2] worked out at 99.45 Perc. In the same order, the values of `COc1cn2nc(CCC(C)(C)O)cc2cc1NC(=O)c1cccn(C)c1=O` [Compound 2, N-[2-(3-hydroxy-3-methylbutyl)-6-methoxypyrazolo[1,5-a]pyridin-5-yl]-1-methyl-2-oxopyridine-3-carboxamide] are 0.1 to 500 nM and 94.1 Perc.

With `COc1cn2nc(CCC(C)(C)O)cc2cc1NC(=O)c1cccc(C(F)(F)F)n1` [Compound 3, N-[2-(3-hydroxy-3-methylbutyl)-6-methoxypyrazolo[1,5-a]pyridin-5-yl]-6-(trifluoromethyl)pyridine-2-carboxamide], the half-maximal inhibitory concentration (IC50) in series [1] (Homo sapiens) lay in the range of 1000 to 5000 nM. The “Mouse Hepatocyte stability (Perc. remaining at 90 min)” value in series [2] amounted to 10.17 Perc. As to `CC(C)(O)CCc1cc2cc(NC(=O)c3cccc(C(F)(F)F)n3)c(C(N)=O)cn2n1` [Compound 4, 2-(3-hydroxy-3-methylbutyl)-5-[[6-(trifluoromethyl)pyridine-2-carbonyl]amino]pyrazolo[1,5-a]pyridine-6-carboxamide], the IC50 in series [1] (Homo sapiens) was in the range of 0.1 to 500 nM.

With `CNC(=O)c1cn2nc(CCC(C)(C)O)cc2cc1NC(=O)c1cccc(C(F)(F)F)n1` [Compound 5, 2-(3-hydroxy-3-methylbutyl)-N-methyl-5-[[6-(trifluoromethyl)pyridine-2-carbonyl]amino]pyrazolo[1,5-a]pyridine-6-carboxamide], in series [1] (Homo sapiens), the IC50 lay within 1000 to 5000 nM. For the same molecule, in series [2], the “Mouse Hepatocyte stability (Perc. remaining at 90 min)” value worked out at 76.25 Perc. The corresponding values for `COc1cn2nc(CCC(C)(C)O)cc2cc1NC(=O)c1cccn(C(F)F)c1=O` [Compound 7, 1-(difluoromethyl)-N-[2-(3-hydroxy-3-methyl-butyl)-6-methoxy-pyrazolo[1,5-a]pyridin-5-yl]-2-oxo-pyridine-3-carboxamide] are 1000 to 5000 nM and 108.25 Perc. Take `CNC(=O)c1cn2nc(C3CCCS(=O)(=O)C3)cc2cc1NC(=O)c1cccc(C(F)(F)F)n1` (stereo not drawn) [Compound 8, 2-(1,1-dioxothian-3-yl)-N-methyl-5-[[6-(trifluoromethyl)pyridine-2-carbonyl]amino]pyrazolo[1,5-a]pyridine-6-carboxamide]: in series [2], the “Mouse Hepatocyte stability (Perc. remaining at 90 min)” value is given as 75.15 Perc. On to `CCOc1cn2nc(CCC(C)(C)O)cc2cc1NC(=O)c1cccn(C(F)F)c1=O` [Compound 9, 1-(difluoromethyl)-N-[6-ethoxy-2-(3-hydroxy-3-methyl-butyl)pyrazolo[1,5-a]pyridin-5-yl]-2-oxo-pyridine-3-carboxamide], for which, in series [1] (Homo sapiens), the half-inhibitory concentration (IC50) was in the range of 500 to 1000 nM. For the same molecule, in series [2], the “Mouse Hepatocyte stability (Perc. remaining at 90 min)” value is 83.65 Perc. The corresponding values for `CNC(=O)c1cn2nc(C3CCN(C)CC3)cc2cc1NC(=O)c1cccc(C(F)(F)F)n1` [Compound 12, N-methyl-2-(1-methyl-4-piperidyl)-5-[[6-(trifluoromethyl)pyridine-2-carbonyl]amino]pyrazolo[1,5-a]pyridine-6-carboxamide] are 1000 to 5000 nM and 97.05 Perc. As for `COc1c(NC(=O)c2cccn(C3CC3)c2=O)cc2cc(CCC(C)(C)O)nn2c1C` [Compound 13, 1-cyclopropyl-N-[2-(3-hydroxy-3-methyl-butyl)-6-methoxy-7-methyl-pyrazolo[1,5-a]pyridin-5-yl]-2-oxo-pyridine-3-carboxamide], the “Mouse Hepatocyte stability (Perc. remaining at 90 min)” value in series [2] was determined as 87.8 Perc. `CNC(=O)c1cn2nc(C3CCOCC3)cc2cc1NC(=O)c1cccc(C(F)F)n1` [Compound 15, 5-[[6-(difluoromethyl)pyridine-2-carbonyl]amino]-N-methyl-2-tetrahydropyran-4-yl-pyrazolo[1,5-a]pyridine-6-carboxamide] gave an IC50 in series [1] (Homo sapiens) of over 5000 nM. On to `NC(=O)c1cn2nc(C3CCOCC3)cc2cc1NC(=O)c1cccc(C(F)F)n1` [Compound 16, 5-[[6-(difluoromethyl)pyridine-2-carbonyl]amino]-2-tetrahydropyran-4-yl-pyrazolo[1,5-a]pyridine-6-carboxamide], for which, in series [2], the “Mouse Hepatocyte stability (Perc. remaining at 90 min)” value is 51.75 Perc. `CCOc1cn2nc(CCC(C)(C)O)cc2cc1NC(=O)c1cccn(C2CC2)c1=O` [Compound 17, 1-cyclopropyl-N-[6-ethoxy-2-(3-hydroxy-3-methyl-butyl)pyrazolo[1,5-a]pyridin-5-yl]-2-oxo-pyridine-3-carboxamide] displayed a concentration for half-maximal inhibition (IC50) in series [1] (Homo sapiens) of 500 to 1000 nM. In series [2], the “Mouse Hepatocyte stability (Perc. remaining at 90 min)” value stood at 93 Perc. As for `CC(C)(O)CCc1cc2cc(NC(=O)c3cccc(C(F)F)n3)c(C(N)=O)cn2n1` [Compound 20, 5-[[6-(difluoromethyl)pyridine-2-carbonyl]amino]-2-(3-hydroxy-3-methyl-butyl)pyrazolo[1,5-a]pyridine-6-carboxamide], in series [2], the “Mouse Hepatocyte stability (Perc. remaining at 90 min)” value amounted to 80.9 Perc. With `COc1cn2nc(CC(F)C(C)(C)O)cc2cc1NC(=O)c1cccn(C2CC2)c1=O` (stereo not drawn) [Compound 22, 1-cyclopropyl-N-[2-(2-fluoro-3-hydroxy-3-methyl-butyl)-6-methoxy-pyrazolo[1,5-a]pyridin-5-yl]-2-oxo-pyridine-3-carboxamide], the IC50 in series [1] (Homo sapiens) lay within 0.1 to 500 nM.

`[2H]C([2H])([2H])C(O)(CCc1cc2cc(NC(=O)c3cccn(C4CC4)c3=O)c(OC)cn2n1)C([2H])([2H])[2H]` [Compound 23, 1-cyclopropyl-N-[6-methoxy-2-[4,4,4-trideuterio-3-hydroxy-3-(trideuteriomethyl)butyl]pyrazolo[1,5-a]pyridin-5-yl]-2-oxo-pyridine-3-carboxamide] came in with an IC50 in series [1] (Homo sapiens) of 0.1 to 500 nM.

`[2H]C([2H])([2H])Oc1cn2nc(CCC(C)(C)O)cc2cc1NC(=O)c1cccn(C2CC2)c1=O` [Compound 24, 1-cyclopropyl-N-[2-(3-hydroxy-3-methylbutyl)-6-(trideuteriomethoxy)pyrazolo[1,5-a]pyridin-5-yl]-2-oxopyridine-3-carboxamide] came in with a 50% inhibitory concentration (IC50) in series [1] (Homo sapiens) of 0.1 to 500 nM.
